Reference: PMC7831021, “Computational Evolution of Beta-2-Microglobulin Binding Peptides for Nanopatterned Surface Sensors” (International Journal of Molecular Sciences, 2021)
Where a SMILES comes first, the peptide text is derived from it. Bridges are numbered along the chain shown (N, C = ends).

Tests used:
[1] = target: T1, beta-2-Microglobulin (β2m) (Homo sapiens, UniProt P61769); assay: Surface plasmon resonance (SPR) binding of peptides to immobilized β2m
T1 construct: purchased Sigma Aldrich (Germany)
Description: The interaction between the protein and computationally optimized peptides was measured using the BIAcore 3000 (GE Healthcare, Milano, Italy). β2m was immobilized at a concentration of 100 μg/mL in 10 mM acetate buffer pH 5 (flow rate 5 μL/min, time injection 7 min) on a CM5 Biacore sensor chip, using EDC/NHS chemistry following the manufacturer’s instructions. Residual reactive groups were deactivated by treatment with 1 M ethanolamine hydrochloride, pH 8.5. The reference channel was activated with EDC/NHS and deactivated with ethanolamine. The binding assays were carried out at 20 μL/min at 25 °C, with 4.5 min contact-time. Peptides were diluted in the HBS running buffer (10 mM Hepes, 150 mM NaCl, 3 mM EDTA, pH 7.4). Analyte injections were performed at the indicated concentrations. The sensor surface was regenerated by using 10mM NaOH for 1 min. The association phase (kon) was followed for 250 s, whereas the dissociation phase (koff) was followed for 300 s. The instrument BIAevaluation analysis package (version 4.1, GE Healthcare, Milano, Italy) was used to subtract the signal of the reference channel.

[2] = target: T1, beta-2-Microglobulin (β2m); assay: AFM differential height β2m binding (recognition) assay on dsDNA–peptide nanopatches; conditions: 5 and 1.25 mg/mL β2m
Description: After the nanografting process, the sample was thoroughly rinsed with 1M NaCl, TE1X buffer (DNA-free buffer), followed by a hybridization procedure with 200 nM of ssDNA–peptide conjugates solution in 1 M NaCl, Te1X at pH 7.2 and the hybridization process took place at 37 °C for 1 h. This was repeated for different concentrations of the ssDNA–pep381 so as to obtain the plots in Figure 7. Next, the sample was copiously rinsed with 1M NaCl, TE1X buffer (DNA-free buffer). This was to remove any un-bound molecules and other excess molecules that were not part of the hybridization. At the end of hybridization process before β2m binding assays, we performed AFM topographic imaging at low force (~0.2 nN) in contact mode and acquired AFM micrographs of all the nanografted nanoassemblages that had undergone hybridization. This imaging section allowed us to compare the AFM micrographs of ssDNA nanopatches to the same after hybridization with ssDNA–peptide conjugates and measure their respective relative heights.
The dsDNA–peptide nanoassemblages were incubated with the known concentration of β2m solution for a period of 1 h at 25 °C. […] Next, we measured the relative height of dsDNA–peptide assemblage after the binding assay using the section tool in Igor Pro 6.3A software. […]

T1 sequence (P61769 21-119): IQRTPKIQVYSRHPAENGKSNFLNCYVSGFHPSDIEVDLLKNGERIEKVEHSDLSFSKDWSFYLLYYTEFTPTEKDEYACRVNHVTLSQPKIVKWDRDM

| Compound | kon ([1]; BIAcore 3000, HBS pH 7.4, 25 °C, association followed for 250 s, χ^2 = 4.5) [M⁻¹ s⁻¹] | koff ([1]; BIAcore 3000, HBS pH 7.4, 25 °C, dissociation followed for 300 s, χ^2 = 4.5) [s⁻¹] | SPR affinity, in words ([1]; SPR, 1:1 Langmuir) | recognition of respective binding sites on β2m, in words [2] |
| --- | --- | --- | --- | --- |
| C[C@@H]1NC(=O)[C@H]([C@@H](C)O)NC(=O)[C@H](CCC(=O)O)NC(=O)[C@H](Cc2ccccc2)NC(=O)[C@@H](N)CSSC[C@@H](C(=O)O)NC(=O)[C@H](Cc2c[nH]c3ccccc23)NC(=O)[C@H](CCC(=O)O)NC(=O)[C@H](CC(N)=O)NC(=O)[C@H](CCC(N)=O)NC(=O)[C@H](CCCNC(=N)N)NC(=O)[C@H](Cc2c[nH]c3ccccc23)NC1=O [pep331] (H-CFETAWRQNEWC-OH; disulfide 1-12) | 15 | 0.00449 | micromolar KD estimated values |  |
| [CRRYSHQHYRHC] (disulfide) [pep381] |  |  |  | relatively high sensitivity |
